Reference: patent US20190194621A1, “MEDIUM FOR CULTURING STEM CELLS, METHOD FOR CULTURING STEM CELLS, GROWTH PROMOTER FOR STEM CELLS, AND CELL COMPOSITION AND METHOD FOR PRODUCING SAME” (KYOWA HAKKO BIO CO., LTD., priority 2016, published 2019)

Tested on: human iPS cell 253G1 cell line
Experiment: Culture of human iPS cells in growth-factor-free medium with added compound; count of Hoechst-stained nuclei and OCT3/4 positive cells
Format: cell-based
Settings: for number of nuclei counted, increase as compared with the medium to which no growth factor was added (−GF) / expression ratio of OCT3/4 (proportion of Oct3/4 positive cells among Hoechst 33342 stained cells): 5 μM HA100, 0.05 μM DZNep or 0.01 nM TTNPB in growth-factor-free medium; for number of nuclei counted, increase as compared with the medium to which no growth factor was added (−GF): 3 days, 37° C., 10% CO2, average of four experiments; for expression ratio of OCT3/4 (proportion of Oct3/4 positive cells among Hoechst 33342 stained cells): +GF = 2 ng/mL activin A and 5 ng/mL bFGF
Procedure: A medium obtained by adding and dissolving separate components shown in the following Table 1 sterilized through a 0.22 μm filter, 10 μg/mL insulin (manufactured by Sigma-Aldrich Co. LLC.), 5 μg/mL apotransferrin (manufactured by Sigma-Aldrich Co. LLC.), and oleic acid-conjugated recombinant human serum albumin (manufactured by Sigma-Aldrich Co. LLC.) in a known medium (mESF Basal Medium, manufactured by Wako Pure Chemical Industries, Ltd.) was used as a medium in a negative control group. A medium obtained by adding 5 μM HA100 that is a ROCK inhibitor and a PKC inhibitor, 0.05 μM DZNep that is a histone methyltransferase inhibitor, or 0.01 nM TTNPB that is a retinoic acid receptor agonist to the medium of the negative control group was used as a medium in an evaluation target group. Further, a medium obtained by adding 2 ng/mL activin A (manufactured by Wako Pure Chemical Industries, Ltd.) and 5 ng/mL bFGF (manufactured by Wako Pure Chemical Industries, Ltd.) to the medium of the negative control group was used as a medium of a positive control group. The prepared medium in the negative control group, media in the evaluation target group (the medium obtained by adding HA100 to the medium in the negative control group, the medium obtained by adding DZNep to the medium in the negative control group, and the medium obtained by adding TTNPB to the medium in the negative control group), and medium in the positive control group were added to a 24-well plate for cell culture (manufactured by Sumitomo Bakelite Company Limited) at 1 mL/well, and a human iPS cell 253G1 cell line (established by Center for iPS Cell Research and Application, Kyoto University and obtained from iPS Academia Japan, Inc.) was cultured in the presence of 10% CO2 at 37° C. for 3 days. With respect to the cultured cells, the nuclei were stained with Hoechst 33342 (manufactured by Dojindo Laboratories). Further, OCT3/4 protein in the cells was stained with OCT-3/4 antibody C-10 (manufactured by Santa Cruz Biotechnology) and […] anti-mouse IgG (H+L) Secondary Antibod Alexa Fluor 488 conjugate (manufactured by Invitorogen Co.). Thereafter, the number of stained nuclei and the number of Oct3/4 positive cells were counted using In cell analyzer (manufactured by GE Healthcare, Inc.).

Row | Structure (SMILES) | number of nuclei counted, increase as compared with the medium to which no growth factor was added (−GF) | expression ratio of OCT3/4 (proportion of Oct3/4 positive cells among Hoechst 33342 stained cells) (3 days culture) | growth compared with the medium to which a growth factor was added (+GF) (5 μM HA100 in growth-factor-free medium, 3 days culture)
1 | Cl.O=S(=O)(c1cccc2cnccc12)N1CCNCC1 [HA100, 1-(5-isoquinolinesulfonyl)piperazine hydrochloride] | 1.83 times | 89.3% | growth comparable to that in the case of using the medium to which a growth factor was added
2 | Nc1nccc2c1ncn2C1C=C(CO)C(O)C1O (stereo not shown) [DZNep, 3-deazaneplanocin] | 1.35 times | 95.6% | –
3 | C/C(=C\c1ccc(C(=O)O)cc1)c1ccc2c(c1)C(C)(C)CCC2(C)C [TTNPB, 4-[(E)-2-(5,6,7,8-tetrahydro-5,5,8,8-tetramethyl-2-naphthalenyl)-1-propenyl]benzoic acid] | 1.24 times | 84.2% | –
